# Data published in paper PMC5218480 (PLoS ONE, 2017).
# Test system: MV-4-11 cells
# Assay: Gene expression microarray analysis (Affymetrix PrimeView) and GSEA
# Format: cell-based, human
# Parameters: RFU PODN (11730768_x_at) / Fold change /veh PODN (11730768_x_at) / RFU LINC00158 (11744669_a_at) / Fold change /veh LINC00158 (11744669_a_at) / RFU DUSP10 (11751237_a_at) / Fold change /veh DUSP10 (11751237_a_at) / RFU ID3 (11757404_x_at) / Fold change /veh ID3 (11757404_x_at) / RFU PLEKHG5 (11737974_s_at) / Fold change /veh PLEKHG5 (11737974_s_at) / RFU LRRC4B (11730491_at) / Fold change /veh LRRC4B (11730491_at) / RFU GIMAP4 (11747438_a_at) / Fold change /veh GIMAP4 (11747438_a_at) / RFU KRT8 (11758183_x_at) / Fold change /veh KRT8 (11758183_x_at) / RFU CNN1 (11734310_a_at) / Fold change /veh CNN1 (11734310_a_at) / RFU VPS37D (11726825_at) / Fold change /veh VPS37D (11726825_at) / RFU C10orf10 (11716522_x_at) / Fold change /veh C10orf10 (11716522_x_at) / RFU KIR2DL2 /// KIR2DL4 /// KIR2DL5A /// KIR2DL5B /// KIR2DS1 /// KIR2DS2 /// KIR2DS3 /// KIR2DS4 /// KIR3DL3 /// KIR3DL3 /// KIR3DS1 (11738374_at) / Fold change /veh KIR2DL2 /// KIR2DL4 /// KIR2DL5A /// KIR2DL5B /// KIR2DS1 /// KIR2DS2 /// KIR2DS3 /// KIR2DS4 /// KIR3DL3 /// KIR3DL3 /// KIR3DS1 (11738374_at) / RFU C1QL1 (11718748_at) / Fold change /veh C1QL1 (11718748_at) / RFU TMPRSS4 (11747572_a_at) / Fold change /veh TMPRSS4 (11747572_a_at) / RFU HAMP (11756126_x_at) / Fold change /veh HAMP (11756126_x_at) / RFU RNFT2 (11725882_a_at) / Fold change /veh RNFT2 (11725882_a_at) / RFU NR4A2 (11747474_a_at) / Fold change /veh NR4A2 (11747474_a_at) / RFU ABCC12 (11746883_a_at) / Fold change /veh ABCC12 (11746883_a_at) / RFU TMEM136 (11760407_x_at) / Fold change /veh TMEM136 (11760407_x_at) / RFU CLDN22 /// WWC2 (11732394_at) / Fold change /veh CLDN22 /// WWC2 (11732394_at) / RFU HLA-DPB1 (11760878_x_at) / Fold change /veh HLA-DPB1 (11760878_x_at) / RFU SPINT1 (11716480_a_at) / Fold change /veh SPINT1 (11716480_a_at) / RFU GAP43 (11754022_s_at) / Fold change /veh GAP43 (11754022_s_at) / RFU A4GNT (11735810_at) / Fold change /veh A4GNT (11735810_at) / RFU PRB3 (11715151_x_at) / Fold change /veh PRB3 (11715151_x_at) / RFU TUBB4B (11761932_at) / Fold change /veh TUBB4B (11761932_at) / RFU CAPN14 (11732068_a_at) / Fold change /veh CAPN14 (11732068_a_at) / RFU TMCC2 (11721928_a_at) / Fold change /veh TMCC2 (11721928_a_at) / RFU IRGQ (11745062_a_at) / Fold change /veh IRGQ (11745062_a_at) / RFU FAM174B (11720279_a_at) / Fold change /veh FAM174B (11720279_a_at) / RFU TMPRSS4 (11748680_a_at) / Fold change /veh TMPRSS4 (11748680_a_at) / RFU FAM212B (11763350_a_at) / Fold change /veh FAM212B (11763350_a_at) / RFU PLEKHG5 (11743358_a_at) / Fold change /veh PLEKHG5 (11743358_a_at) / RFU ZSCAN30 (11745921_a_at) / Fold change /veh ZSCAN30 (11745921_a_at) / RFU CMKLR1 (11741424_a_at) / Fold change /veh CMKLR1 (11741424_a_at) / RFU LOC101060620 /// MAPK8IP1 (11723275_at) / Fold change /veh LOC101060620 /// MAPK8IP1 (11723275_at) / RFU SPTSSB (11747773_x_at) / Fold change /veh SPTSSB (11747773_x_at) / RFU PRSS12 (11739890_at) / Fold change /veh PRSS12 (11739890_at) / RFU BIN1 (11741810_x_at) / Fold change /veh BIN1 (11741810_x_at) / RFU WNT11 (11732464_a_at) / Fold change /veh WNT11 (11732464_a_at) / RFU C10orf10 (11716521_a_at) / Fold change /veh C10orf10 (11716521_a_at) / RFU C5orf56 (11738089_at) / Fold change /veh C5orf56 (11738089_at) / RFU CYB561 (11721691_x_at) / Fold change /veh CYB561 (11721691_x_at) / RFU ANKRD19P (11752326_a_at) / Fold change /veh ANKRD19P (11752326_a_at) / RFU OR2T12 /// OR2T33 /// OR2T8 (11738714_s_at) / Fold change /veh OR2T12 /// OR2T33 /// OR2T8 (11738714_s_at) / RFU VCAN (11748164_a_at) / Fold change /veh VCAN (11748164_a_at) / RFU JSRP1 (11732532_at) / Fold change /veh JSRP1 (11732532_at) / RFU KRTAP10-11 (11738290_x_at) / Fold change /veh KRTAP10-11 (11738290_x_at) / RFU MYO3A (11730013_a_at) / Fold change /veh MYO3A (11730013_a_at) / RFU EBF3 (11725865_a_at) / Fold change /veh EBF3 (11725865_a_at) / RFU CAMK2N1 (11719241_x_at) / Fold change /veh CAMK2N1 (11719241_x_at) / RFU C5orf56 (11738088_a_at) / Fold change /veh C5orf56 (11738088_a_at) / RFU OLFML3 (11715873_a_at) / Fold change /veh OLFML3 (11715873_a_at) / RFU LOC100653217 /// NTM (11731650_a_at) / Fold change /veh LOC100653217 /// NTM (11731650_a_at) / RFU MAPK11 (11762145_a_at) / Fold change /veh MAPK11 (11762145_a_at) / RFU FIZ1 (11724087_x_at) / Fold change /veh FIZ1 (11724087_x_at) / RFU OASL (11726364_x_at) / Fold change /veh OASL (11726364_x_at) / RFU SOX15 (11748057_x_at) / Fold change /veh SOX15 (11748057_x_at) / RFU CD79A (11719716_a_at) / Fold change /veh CD79A (11719716_a_at) / RFU HIST1H1D (11736915_at) / Fold change /veh HIST1H1D (11736915_at) / RFU CASKIN2 (11723855_a_at) / Fold change /veh CASKIN2 (11723855_a_at) / RFU LOC730098 (11760151_x_at) / Fold change /veh LOC730098 (11760151_x_at) / RFU OR4N2 (11742367_at) / Fold change /veh OR4N2 (11742367_at) / RFU PRRT2 (11749266_a_at) / Fold change /veh PRRT2 (11749266_a_at) / RFU SNX32 (11753110_a_at) / Fold change /veh SNX32 (11753110_a_at) / RFU CDHR5 (11726645_a_at) / Fold change /veh CDHR5 (11726645_a_at) / RFU RCAN1 (11760418_a_at) / Fold change /veh RCAN1 (11760418_a_at) / RFU FAM167A (11723789_a_at) / Fold change /veh FAM167A (11723789_a_at) / RFU FAM26E (11764081_at) / Fold change /veh FAM26E (11764081_at) / RFU ISYNA1 (11749810_s_at) / Fold change /veh ISYNA1 (11749810_s_at) / RFU ACY1 (11761880_at) / Fold change /veh ACY1 (11761880_at) / RFU 11764098_at / Fold change /veh 11764098_at / RFU SAMD14 (11745864_x_at) / Fold change /veh SAMD14 (11745864_x_at) / RFU NPB (11741838_a_at) / Fold change /veh NPB (11741838_a_at) / RFU TMPRSS6 (11731388_a_at) / Fold change /veh TMPRSS6 (11731388_a_at) / RFU KRTAP10-2 (11738614_at) / Fold change /veh KRTAP10-2 (11738614_at) / RFU ARHGAP8 /// PRR5-ARHGAP8 (11727945_x_at) / Fold change /veh ARHGAP8 /// PRR5-ARHGAP8 (11727945_x_at) / RFU KRTAP5-7 /// NADSYN1 (11734609_at) / Fold change /veh KRTAP5-7 /// NADSYN1 (11734609_at) / RFU RASL12 (11751679_a_at) / Fold change /veh RASL12 (11751679_a_at) / RFU CDKN2B (11736163_a_at) / Fold change /veh CDKN2B (11736163_a_at) / RFU PRF1 (11729649_at) / Fold change /veh PRF1 (11729649_at) / RFU, ZNF638 /// ZNF638-IT1 / Fold change vs veh, ZNF638 /// ZNF638-IT1 / RFU, PANK3 / Fold change vs veh, PANK3 / RFU, SH3YL1 / Fold change vs veh, SH3YL1 / RFU, ZEB2 / Fold change vs veh, ZEB2 / RFU, NRIP1 / Fold change vs veh, NRIP1 / RFU, PTTG1IP / Fold change vs veh, PTTG1IP / RFU, CAPN2 / Fold change vs veh, CAPN2 / RFU, MED14 / Fold change vs veh, MED14 / RFU, SNORA58 / Fold change vs veh, SNORA58 / RFU, C1orf63 / Fold change vs veh, C1orf63 / RFU, LRRFIP1 / Fold change vs veh, LRRFIP1 / RFU, NDUFAF7 / Fold change vs veh, NDUFAF7 / RFU, SLC12A2 / Fold change vs veh, SLC12A2 / RFU, IBTK / Fold change vs veh, IBTK / RFU, ESF1 / Fold change vs veh, ESF1 / Fold change vs veh, TMEM50B / RFU, TAOK1 / Fold change vs veh, TAOK1 / RFU, ACBD3 / Fold change vs veh, ACBD3 / RFU, TMA16 / Fold change vs veh, TMA16 / RFU, RWDD3 / Fold change vs veh, RWDD3 / RFU, BCAT1 / Fold change vs veh, BCAT1 / RFU, EDEM3 / Fold change vs veh, EDEM3 / RFU, TMEM33 / Fold change vs veh, TMEM33 / RFU, WDR75 / Fold change vs veh, WDR75 / RFU, AHCTF1 / Fold change vs veh, AHCTF1 / RFU, TFRC / Fold change vs veh, TFRC / RFU, ZDHHC17 / Fold change vs veh, ZDHHC17 / RFU, NOM1 / Fold change vs veh, NOM1 / RFU, ARL8B / Fold change vs veh, ARL8B / RFU, ZBTB11 / Fold change vs veh, ZBTB11 / RFU, TAMM41 / Fold change vs veh, TAMM41 / RFU, KIAA1704 /// LOC100996395 / Fold change vs veh, KIAA1704 /// LOC100996395 / RFU, ING1 / Fold change vs veh, ING1 / RFU, TRMT61B / Fold change vs veh, TRMT61B / RFU, FUBP3 / Fold change vs veh, FUBP3 / RFU, TP53 / Fold change vs veh, TP53 / RFU, TNKS2 / Fold change vs veh, TNKS2 / RFU, ZFP14 / Fold change vs veh, ZFP14 / RFU, ACTR2 / Fold change vs veh, ACTR2 / RFU, PPP3R1 / Fold change vs veh, PPP3R1 / RFU, PIK3R1 / Fold change vs veh, PIK3R1 / RFU, HNRNPA1 / Fold change vs veh, HNRNPA1 / RFU, RNF170 / Fold change vs veh, RNF170 / RFU, ZNF28 / Fold change vs veh, ZNF28 / RFU, RNGTT / Fold change vs veh, RNGTT / RFU, OGT / Fold change vs veh, OGT / RFU, BRD1 / Fold change vs veh, BRD1 / RFU, MARS / Fold change vs veh, MARS / RFU, ZNF655 / Fold change vs veh, ZNF655 / RFU, FAHD1 / Fold change vs veh, FAHD1 / RFU, BDP1 / Fold change vs veh, BDP1 / RFU, LRRCC1 / Fold change vs veh, LRRCC1 / RFU, ARID1A / Fold change vs veh, ARID1A / RFU, ZNF146 / Fold change vs veh, ZNF146 / RFU, ZNF330 / Fold change vs veh, ZNF330 / RFU, GPN3 / Fold change vs veh, GPN3 / RFU, C9orf123 / Fold change vs veh, C9orf123 / RFU, N4BP2L2 / Fold change vs veh, N4BP2L2 / RFU, ARFIP1 / Fold change vs veh, ARFIP1 / RFU, FAM179B / Fold change vs veh, FAM179B / RFU, BCL10 / Fold change vs veh, BCL10 / RFU, UHRF1BP1L / Fold change vs veh, UHRF1BP1L / RFU, BET1 / Fold change vs veh, BET1 / RFU, CNOT2 / Fold change vs veh, CNOT2 / RFU, ZNF268 / Fold change vs veh, ZNF268 / Fold change vs veh, ZNF507 / RFU, DGCR2 / Fold change vs veh, DGCR2 / RFU, WDSUB1 / Fold change vs veh, WDSUB1 / Fold change vs veh, HSP90B1 /// MIR3652 / RFU, ADSS / Fold change vs veh, ADSS / RFU, GK / Fold change vs veh, GK / RFU, ZNF148 / Fold change vs veh, ZNF148 / RFU, TAF9 / Fold change vs veh, TAF9 / RFU, SLC1A5 / Fold change vs veh, SLC1A5 / RFU, SLMO2 / Fold change vs veh, SLMO2 / RFU, ABCC4 / Fold change vs veh, ABCC4 / RFU, LOC101060439 /// RAP1B / Fold change vs veh, LOC101060439 /// RAP1B / RFU, RFX7 / Fold change vs veh, RFX7 / RFU, GTPBP10 / Fold change vs veh, GTPBP10 / RFU, CNEP1R1 / Fold change vs veh, CNEP1R1 / RFU, BIVM-ERCC5 /// ERCC5 / Fold change vs veh, BIVM-ERCC5 /// ERCC5 / RFU, ILF3 / Fold change vs veh, ILF3 / RFU 11762660_at / Fold change /veh 11762660_at / RFU VCAN (11757783_s_at) / Fold change /veh VCAN (11757783_s_at) / RFU DDX43 (11728927_at) / Fold change /veh DDX43 (11728927_at) / RFU KRT8 (11758188_x_at) / Fold change /veh KRT8 (11758188_x_at) / RFU NKD1 (11759106_at) / Fold change /veh NKD1 (11759106_at) / RFU SRD5A1 (11742802_a_at) / Fold change /veh SRD5A1 (11742802_a_at) / RFU TPSAB1 /// TPSB2 (11721975_s_at) / Fold change /veh TPSAB1 /// TPSB2 (11721975_s_at) / RFU GSTM3 (11746129_a_at) / Fold change /veh GSTM3 (11746129_a_at) / RFU IL23R (11737362_x_at) / Fold change /veh IL23R (11737362_x_at) / RFU TMEM51 (11727254_a_at) / Fold change /veh TMEM51 (11727254_a_at) / RFU PIWIL2 (11732686_x_at) / Fold change /veh PIWIL2 (11732686_x_at) / RFU ORM1 (11744905_x_at) / Fold change /veh ORM1 (11744905_x_at) / RFU CCDC152 (11743942_at) / Fold change /veh CCDC152 (11743942_at) / RFU ECM1 (11717891_a_at) / Fold change /veh ECM1 (11717891_a_at) / RFU IL23R (11748794_a_at) / Fold change /veh IL23R (11748794_a_at) / RFU TNFAIP8L3 (11732012_x_at) / Fold change /veh TNFAIP8L3 (11732012_x_at) / RFU MBOAT4 (11741988_at) / Fold change /veh MBOAT4 (11741988_at) / RFU 11764193_at / Fold change /veh 11764193_at / RFU TMEM53 (11763286_at) / Fold change /veh TMEM53 (11763286_at) / RFU MAGEB2 (11727129_at) / Fold change /veh MAGEB2 (11727129_at) / RFU TMEM200A (11744735_a_at) / Fold change /veh TMEM200A (11744735_a_at) / RFU CCDC152 (11751479_a_at) / Fold change /veh CCDC152 (11751479_a_at) / RFU FAM211A (11726209_a_at) / Fold change /veh FAM211A (11726209_a_at) / RFU RGS16 (11746705_a_at) / Fold change /veh RGS16 (11746705_a_at) / RFU VCAN (11755009_s_at) / Fold change /veh VCAN (11755009_s_at) / RFU RHOB (11743442_s_at) / Fold change /veh RHOB (11743442_s_at) / RFU RGS16 (11720943_a_at) / Fold change /veh RGS16 (11720943_a_at) / RFU RGS16 (11720944_at) / Fold change /veh RGS16 (11720944_at) / RFU, VPS4B / Fold change vs veh, VPS4B / RFU, CREB1 / Fold change vs veh, CREB1 / RFU, DNAJC13 / Fold change vs veh, DNAJC13 / RFU, GNAQ / Fold change vs veh, GNAQ / RFU, CDK5R1 / Fold change vs veh, CDK5R1 / RFU, ZRANB3 / Fold change vs veh, ZRANB3 / RFU, CUL4A / Fold change vs veh, CUL4A / RFU, CCNY / Fold change vs veh, CCNY / RFU, UFL1 / Fold change vs veh, UFL1 / RFU, COG3 / Fold change vs veh, COG3 / RFU, DIAPH2 / Fold change vs veh, DIAPH2 / RFU, SKA2 / Fold change vs veh, SKA2 / RFU, AFF3 / Fold change vs veh, AFF3 / RFU, LMF1 / Fold change vs veh, LMF1 / RFU, IPO11 / Fold change vs veh, IPO11 / RFU, DFFB / Fold change vs veh, DFFB / RFU, FOXP1 / Fold change vs veh, FOXP1 / RFU, CARD8 / Fold change vs veh, CARD8 / RFU, STRN3 / Fold change vs veh, STRN3 / RFU, ADK / Fold change vs veh, ADK / RFU, RASSF2 / Fold change vs veh, RASSF2 / RFU, WIPF1 / Fold change vs veh, WIPF1 / RFU, LARP1B / Fold change vs veh, LARP1B / RFU, RASA1 / Fold change vs veh, RASA1 / RFU, RB1 / Fold change vs veh, RB1 / RFU, PPFIA1 / Fold change vs veh, PPFIA1 / RFU, MAT2A / Fold change vs veh, MAT2A / RFU, CCT5 / Fold change vs veh, CCT5 / RFU, WDR92 / Fold change vs veh, WDR92 / RFU, CUX1 / Fold change vs veh, CUX1 / RFU, TTC7A / Fold change vs veh, TTC7A / RFU, TMEM135 / Fold change vs veh, TMEM135 / RFU, DEPTOR / Fold change vs veh, DEPTOR / RFU, CPM / Fold change vs veh, CPM / RFU, DNAJB6 / Fold change vs veh, DNAJB6 / RFU, CACNA2D3 / Fold change vs veh, CACNA2D3 / RFU, DTX4 / Fold change vs veh, DTX4 / RFU, TFCP2 / Fold change vs veh, TFCP2 / RFU, GMCL1 /// GMCL1P1 / Fold change vs veh, GMCL1 /// GMCL1P1 / RFU, AEBP2 / Fold change vs veh, AEBP2 / RFU, SNHG1 /// SNORD22 /// SNORD25 /// SNORD26 /// SNORD27 /// SNORD28 /// SNORD29 /// SNORD31 / Fold change vs veh, SNHG1 /// SNORD22 /// SNORD25 /// SNORD26 /// SNORD27 /// SNORD28 /// SNORD29 /// SNORD31 / Fold change (Aza/veh), C12orf56 (ProbeSet 11735607_a_at) / Fold change (ACY-1035/veh), C12orf56 (ProbeSet 11735607_a_at) / Fold change (Aza/veh), FGFR1OP (ProbeSet 11751329_s_at) / Fold change (ACY-1035/veh), FGFR1OP (ProbeSet 11751329_s_at) / Fold change (Aza/veh), VPS36 (ProbeSet 11739960_a_at) / Fold change (ACY-1035/veh), VPS36 (ProbeSet 11739960_a_at) / RFU SYPL1 (11715823_x_at) / Fold change /veh SYPL1 (11715823_x_at) / RFU IGFBP7 (11715501_s_at) / Fold change /veh IGFBP7 (11715501_s_at) / RFU REEP3 (11722064_at) / Fold change /veh REEP3 (11722064_at) / RFU IGLL1 (11728026_x_at) / Fold change /veh IGLL1 (11728026_x_at): dose or concentration left out as unconfirmed
# Settings: ProbeSet 11747888_a_at; LIST D
structure (smiles),measurement,value
Nc1ncn([C@@H]2O[C@H](CO)[C@@H](O)[C@H]2O)c(=O)n1 [azacitidine],"RFU, SH3YL1",53.76 RFU
